From article PMC10006169, “A phase I trial of LXS196, a protein kinase C (PKC) inhibitor, for metastatic uveal melanoma” (British Journal of Cancer, 2023)

Tested on: patients with MUM
Assay: Adverse events suspected to be study drug related (NCI-CTCAE v4.03)
Format: in vivo, human
Protocol: Routine safety assessments, including laboratory assessments, physical examinations, vital signs and electrocardiograms (ECGs), were conducted at regular intervals throughout the study and more frequently as needed following patient assessment by the treating physician. Adverse events (AEs) were assessed continuously according to the National Cancer Institute Common Terminology Criteria for Adverse Events (NCI-CTCAE) v4.03.

CC1(N)CCN(c2cccnc2NC(=O)c2nc(-c3ncccc3C(F)(F)F)cnc2N)CC1 [LXS196]
5 (16.7) n (%): Blood creatinine increased, all grades (All BID)
16 (53.3) n (%): Diarrhoea, all grades (All BID)
10 (90.9) n (%): Patients with ≥1 AE, all grades (500 mg QD)
5 (33.3) n (%): Vomiting, all grades (300 mg QD)
1 (3.3) n (%): Diarrhoea, grade ≥3 (All BID)
2 (18.2) n (%): Asthenia, all grades (500 mg QD)
1 (25.0) n (%): ALT increased, all grades (1000 mg QD) | Dry skin, all grades (1000 mg QD) | Hypotension, grade ≥3 (1000 mg QD)
3 (10.0) n (%): Constipation, all grades (All BID)
4 (100) n (%): Diarrhoea, all grades (1000 mg QD) | Nausea, all grades (1000 mg QD) | Patients with ≥1 AE, all grades (1000 mg QD)
2 (13.3) n (%): Patients with ≥1 AE, grade ≥3 (300 mg QD)
0 n (%): Nausea, grade ≥3 (300 mg QD) | Rash, grade ≥3 (300 mg QD) | Vomiting, grade ≥3 (300 mg QD) | Asthenia, grade ≥3 (500 mg QD) | Blood creatinine increased, all grades (500 mg QD) | Blood creatinine increased, grade ≥3 (500 mg QD) | Constipation, all grades (500 mg QD) | Constipation, grade ≥3 (500 mg QD) | Diarrhoea, grade ≥3 (500 mg QD) | Dry skin, all grades (500 mg QD) | Dry skin, grade ≥3 (500 mg QD) | Fatigue, all grades (500 mg QD) | Fatigue, grade ≥3 (500 mg QD) | Nausea, grade ≥3 (500 mg QD) | Rash, all grades (500 mg QD) | Rash, grade ≥3 (500 mg QD) | Vomiting, grade ≥3 (500 mg QD) | ALT increased, all grades (800 mg QD) | ALT increased, grade ≥3 (800 mg QD) | AST increased, all grades (800 mg QD) | AST increased, grade ≥3 (800 mg QD) | Asthenia, all grades (800 mg QD) | Asthenia, grade ≥3 (800 mg QD) | Blood creatinine increased, all grades (800 mg QD) | Blood creatinine increased, grade ≥3 (800 mg QD) | Constipation, all grades (800 mg QD) | Constipation, grade ≥3 (800 mg QD) | Diarrhoea, grade ≥3 (800 mg QD) | Dry skin, all grades (800 mg QD) | Dry skin, grade ≥3 (800 mg QD) | Fatigue, all grades (800 mg QD) | Fatigue, grade ≥3 (800 mg QD) | Nausea, grade ≥3 (800 mg QD) | Rash, all grades (800 mg QD) | Rash, grade ≥3 (800 mg QD) | Vomiting, all grades (800 mg QD) | Vomiting, grade ≥3 (800 mg QD) | ALT increased, grade ≥3 (1000 mg QD) | AST increased, all grades (1000 mg QD) | AST increased, grade ≥3 (1000 mg QD) | Asthenia, all grades (1000 mg QD) | Asthenia, grade ≥3 (1000 mg QD) | Blood creatinine increased, all grades (1000 mg QD) | Blood creatinine increased, grade ≥3 (1000 mg QD) | Constipation, all grades (1000 mg QD) | Constipation, grade ≥3 (1000 mg QD) | Diarrhoea, grade ≥3 (1000 mg QD) | Dry skin, grade ≥3 (1000 mg QD) | Fatigue, grade ≥3 (1000 mg QD) | Nausea, grade ≥3 (1000 mg QD) | Rash, all grades (1000 mg QD) | Rash, grade ≥3 (1000 mg QD) | Vomiting, all grades (1000 mg QD) | Vomiting, grade ≥3 (1000 mg QD) | Asthenia, grade ≥3 (All BID) | Blood creatinine increased, grade ≥3 (All BID) | Constipation, grade ≥3 (All BID)
3 (75.0) n (%): Fatigue, all grades (1000 mg QD)
4 (36.4) n (%): AST increased, all grades (500 mg QD) | Diarrhoea, all grades (500 mg QD) | Hypotension, all grades (500 mg QD) | Patients with ≥1 AE, grade ≥3 (500 mg QD)
5 (45.5) n (%): Vomiting, all grades (500 mg QD)
7 (23.3) n (%): Asthenia, all grades (All BID)
14 (93.3) n (%): Patients with ≥1 AE, all grades (300 mg QD)
1 (100) n (%): Diarrhoea, all grades (800 mg QD) | Hypotension, all grades (800 mg QD) | Hypotension, grade ≥3 (800 mg QD) | Nausea, all grades (800 mg QD) | Patients with ≥1 AE, all grades (800 mg QD) | Patients with ≥1 AE, grade ≥3 (800 mg QD)
3 (27.3) n (%): ALT increased, all grades (500 mg QD) | Hypotension, grade ≥3 (500 mg QD)
2 (50.0) n (%): Hypotension, all grades (1000 mg QD) | Patients with ≥1 AE, grade ≥3 (1000 mg QD)
6 (20.0) n (%): AST increased, all grades (All BID)
3 (20.0) n (%): Rash, all grades (300 mg QD)
2 (6.7) n (%): ALT increased, grade ≥3 (All BID) | AST increased, grade ≥3 (All BID)
8 (72.7) n (%): Nausea, all grades (500 mg QD)
8 (26.7) n (%): ALT increased, all grades (All BID)
1 (9.1) n (%): ALT increased, grade ≥3 (500 mg QD) | AST increased, grade ≥3 (500 mg QD)
